Test results reported in patent publication US11959083B2, “Immunosuppression-reverting oligonucleotides inhibiting the expression of CD39” (Secarna Pharmaceuticals GmbH & Co. KG, priority 2016, dated 2024).
l = locked nucleic acid (LNA); d = 2'-deoxy (DNA)

How the values were obtained:
Type in all cases: cell-based, human
hCD39 mRNA [1] = assay: hCD39 mRNA knockdown efficacy screen in A-172 cells (single dose, gymnotic delivery, QuantiGene Singleplex); details: 10 μM, 3 days, normalized to HPRT1
How it was run: (§1)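 Antisense oligonucleotides given once at 10 μM without transfection reagent (gymnotic) to HDLM-2 or A-172 cells for 3 days. hCD39 mRNA measured by QuantiGene Singleplex, normalized to HPRT1 and expressed relative to untreated cells; triplicate means.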

hCD39 mRNA [2] = assay: hCD39 mRNA knockdown efficacy screen in HDLM-2 cells (single dose, gymnotic delivery, QuantiGene Singleplex); set-up: key to Relative hCD39 mRNA expression (compared to non-treated cells): *: values are below detection limit; details: 10 μM, 3 days
How it was run: as §1

hCD39 mRNA [3] = assay: IC50 determination / concentration-dependent hCD39 mRNA knockdown in HDLM-2 cells; details: for mRNA inhibition: HDLM-2, 3 days, Table 8
Procedure: HDLM-2 cells were treated for 3 days with the indicated concentration of the respective antisense oligonucleotide. Residual hCD39 expression is depicted compared to untreated control cells. hCD39 mRNA expression values were normalized to expression of the housekeeping gene HPRT1.
The antisense oligonucleotide A04040H (SEQ ID No. 3) that had shown potent activity in the first and second screening round was used as reference. HDLM-2 cells treated for 3 days with the indicated concentrations of the respective antisense oligonucleotide. hCD39 mRNA expression values were normalized to expression of the housekeeping gene HPRT1. Residual hCD39 mRNA expression relative to untreated cells (set as 100) is depicted. Depicted is the mean of triplicate wells+/−SD.
In a second experiment the concentration-dependency of effects and the IC50 values of hCD39 antisense oligonucleotides A04010H (SEQ ID No.14), A04016H (SEQ ID No.20), A04017H (SEQ ID No.21), A04020H (SEQ ID No. 24) and A04026H (SEQ ID No.30) were tested. […] HDLM-2 cells were treated with titrated amounts of the respective antisense oligonucleotide (concentrations: 10 μM, 3.3 μM, 1.1 μM, 370 nM, 120 nM, 41 nM, 14 nM, 4.5 nM). hCD39 mRNA expression was analyzed after three days of treatment. FIG. 5 and Table 9 depicts the concentration-dependent reduction of hCD39 mRNA expression by the selected hCD39 antisense oligonucleotides.
The hCD39 antisense oligonucleotides A04051H (SEQ ID No.88), A04052H (SEQ ID No.89), A04053H ([…]), A04056H (SEQ ID No.92), A04059H (SEQ ID No.94), A04060H (SEQ ID No.95), and A04061H (SEQ ID No.96) had shown potent single-dose activity in both HDLM-2 and A-172 cells. […] The antisense oligonucleotide A04040H that had shown potent activity in the first screening round was used as reference. hCD39 mRNA expression was analyzed after 3 days of treatment. FIG. 7 depicts the concentration-dependent reduction of hCD39 expression by hCD39 antisense oligonucleotides.

hCD39 protein = assay: Concentration- and time-dependent hCD39 protein knockdown in HDLM-2 cells (flow cytometry); details: for Inhibition [%] (Protein/mRNA): HDLM-2, CD39 protein
Procedure: FIG. 8 depicts concentration- and time-dependent CD39 protein knockdown by A04040H (SEQ ID No. 3) and A04045H (SEQ ID No. 4). Analysis of CD39 protein expression by flow cytometry in HDML-2 cells is given after treatment with the indicated antisense oligonucleotides for 3, 4 and 6 days. As treatment control, cells were treated with neg1 for 3, 4 and 6 days at the indicated concentrations. Relative expression compared to untreated control cells (=1) is depicted.
(§2) HDLM-2 cells were therefore treated with different concentrations of the respective antisense oligonucleotide for three, four and six days, respectively. Protein expression was analyzed by flow cytometry using the CD39 antibody (clone A1) and 7-AAD to investigate viability. […] Table 13summarizes protein knockdown efficiency of the selected human CD39 antisense oligonucleotides A04040H (SEQ ID No. 3) and A04045H (SEQ ID No. 4) in HDLM-2 cells at different time points: […]

HDLM-2 cells = assay: Viability of HDLM-2 cells (7-AAD, flow cytometry); details: three, four and six days, different concentrations
Procedure: as §2

Substance: +C*+A*+C*T*T*A*C*G*T*T*C*A*C*T*+A*+C*+C (antisense CACTTACGTTCACTACC; sugars from the 5' end l3 d11 l3, all phosphorothioate, methylation of C not given here) [A04045H]
- Mean hCD39 mRNA expression (relative to untreated cells set as 1) (hCD39 mRNA [1]; first screening round): 0.16
- Relative hCD39 mRNA expression (compared to non-treated cells) (hCD39 mRNA [1]; second screening round): 0.08
- Mean hCD39 mRNA expression normalized to HPRT1 relative to untreated control = 1 (hCD39 mRNA [2]; first screening round): 0.09
- Relative hCD39 mRNA expression (compared to non-treated cells) (hCD39 mRNA [2]; second screening round, normalized to HPRT1): *
- mRNA inhibition (hCD39 mRNA [3]; 0.0045 μM): 30.70%
- mRNA inhibition (hCD39 mRNA [3]; 0.013 μM): 33.03%
- mRNA inhibition (hCD39 mRNA [3]; 0.04 μM): 54.20%
- mRNA inhibition (hCD39 mRNA [3]; 0.12 μM): 73.62%
- mRNA inhibition (hCD39 mRNA [3]; 0.4 μM): 87.63%
- mRNA inhibition (hCD39 mRNA [3]; 1.1 μM): 95.07%
- mRNA inhibition (hCD39 mRNA [3]; 3.3 μM): 97.44%
- mRNA inhibition (hCD39 mRNA [3]; 10 μM): 99.19%
- maximal target inhibition (hCD39 mRNA) (hCD39 mRNA [3]; HDLM-2 cells, compared to untreated cells, first IC50 determination): 99.2%
- IC50 (hCD39 mRNA [3]; HDLM-2 cells, hCD39 mRNA, 3 days, first screening round (Table 8)): 66.8 nM
- Inhibition [%] (Protein/mRNA) (hCD39 protein; Day 3, 0.1 μM): 38.81%
- Inhibition [%] (Protein/mRNA) (hCD39 protein; Day 3, 0.5 μM): 50.37%
- Inhibition [%] (Protein/mRNA) (hCD39 protein; Day 3, 1 μM): 51.53%
- Inhibition [%] (Protein/mRNA) (hCD39 protein; Day 3, 10 μM): 54.88%
- Inhibition [%] (Protein/mRNA) (hCD39 protein; Day 4, 0.1 μM): 61.88%
- Inhibition [%] (Protein/mRNA) (hCD39 protein; Day 4, 0.5 μM): 73.20%
- Inhibition [%] (Protein/mRNA) (hCD39 protein; Day 4, 1 μM): 75.55%
- Inhibition [%] (Protein/mRNA) (hCD39 protein; Day 4, 10 μM): 78.72%
- Inhibition [%] (Protein/mRNA) (hCD39 protein; Day 6, 0.1 μM): 80.24%
- Inhibition [%] (Protein/mRNA) (hCD39 protein; Day 6, 0.5 μM): 89.53%
- Inhibition [%] (Protein/mRNA) (hCD39 protein; Day 6, 1 μM): 90.46%
- Inhibition [%] (Protein/mRNA) (hCD39 protein; Day 6, 10 μM): 94.06%
- inhibition of hCD39 protein (hCD39 protein; HDLM-2 cells, three, four and six days, different concentrations): potent inhibition of hCD39 protein after all indicated time points
- viability of HDLM-2 cells (HDLM-2 cells): did not affect viability
